Measured values taken from US9675568B2, “Pharmaceutical compositions” (Symrise AG, priority 2012, dated 2017).

Test system: cell line of human leucemic granulocytes (PMN)
Test: Respiratory burst: zymosan-triggered release of superoxide anions (ROS) measured with Luminol, with cell numbers
Type: cell-based
Conditions: for Cell numbers / Released ROS: compared with the standard (=100), average of triplicate determination; for Released ROS: zymosan-triggered, Luminol
Text: In the course of cutaneous inflammations, leukocytes, such as, for example, the polymorphonuclear neutrophilic granulocytes (PMN), are stimulated by peptides, such as, for example, cytokines, to emit messenger substances, such as, for example, leucotriene, which are released from activated or necrotic cells in the dermis. These activated PMNs release not only proinflammatory cytokins, leucotrienes and proteases, but also ROS, such as, for example, superoxides and hypochlorite anions, which have the task of destroying pathogenic microbes or fungi which have penetrated it. This activity of the PMNs during inflammation is known as respiratory burst and can lead to additional tissue damage. To investigate to what extent the amide is able to prevent or reduce respiratory burst, a cell line of human leucemic granulocytes of these PMNS was incubated together with the test substances at 37° C. from 5% by volume of CO2. After the respiratory burst had been triggered by adding a yeast extract (zymosan) to the cell solution, the release of superoxide anions was determined by means of their reaction with Luminol. The values given are the cell numbers and the amount of released ROS in relative percentages compared with the standard as an average value of a measurement series with triplicate determination.

COc1ccc(NC(=O)C2CC(C)CCC2C(C)C)cc1 (centres unmarked) [Menthane carboxylic acid-N-(4-methoxy-phenyl)-amide]
Cell numbers (0.001 % b.w. active): 104 ± 1 relative percentages | Released ROS (0.001 % b.w. active): 37 ± 25 relative percentages | Cell numbers (0.01 % b.w. active): 94 ± 3 relative percentages | Released ROS (0.01 % b.w. active): 9 ± 4 relative percentages | Cell numbers (0.1 % b.w. active): 93 ± 1 relative percentages | Released ROS (0.1 % b.w. active): 8 ± 4 relative percentages | Damage to the granulocytes (summary in words of Table 1): without damaging the granulocytes | Effect on the respiratory burst of human granulocytes (summary in words of Table 1): strong inhibiting effect
